# Like-named read-outs stand apart in the source and are kept apart here.
# Tests used:
# HeLa cells = assay: [3H]-triptolide saturation (specific) binding in HeLa cells; conditions: 0-100 nM [3H]-triptolide 1 h, non-specific binding with 2 μM cold triptolide, read-out: [3H]-triptolide binding affinity (KD), specific binding
# Protocol: Based upon the data above, Applicant next sought to determine if triptolide binding was saturable and if more than one protein (or binding site) was being targeted. Determination of the [^3H]-triptolide binding affinity (KD) and the binding capacity per cell (Bmax) were calculated using a saturation plot. HeLa cells were cultured to 90% confluency and subsequently treated with 0-100 nM of [^3H]-triptolide for one hour. Non-specific binding was defined using 2 μM cold triptolide as competitor. Bmax was calculated to be 99±19 fmol triptolide bound/[…] of triptolide binding sites.
# Saturation binding assays were accomplished in HeLa cells adhered on 6-well plates in DMEM+10% FBS. All samples were at least 90% confluent at time of addition of triptolide. Non-specific binding of [^3H]-triptolide was assessed by the pre-incubation of 2 μM (non-labeled) triptolide for one hour. Following cold competition (or DMSO) 5, 10, 20, 50, or 100 nM of [^3H]-triptolide was added into the cultures for an additional one hour, and then cells were lysed and counted for binding activity.
# NFκB transactivation = assay: κB-luciferase reporter assay of TNF-α induced NFκB transactivation in HeLa cells; format: cell-based; conditions: for inhibition at 0.1 µM: Homo sapiens
# Protocol: Having established that triptolide induced cell death is dependent upon free calcium concentration, Applicant next determined whether this was also a requirement for the inhibition of NFκB transcription. HeLa cells were transiently transfected with the κB-luciferase reporter construct for 8 hours before being washed and then cultured in the presence or absence of calcium containing medium for 16 hours. Triptolide (100 nM) was pre-incubated with cells for 1 hour before addition of 15 ng/ml of TNF-α for 4 hours.
# As an additional experiment, transcriptional activity was also assessed by site-directed calcium buffering. HeLa cells were co-transfected with the κB-luciferase plasmid as well as one of the following constructs: GFP empty vector, NES-PV-GFP, or NLS-PV-GFP and proper GFP localization was confirmed. […]
# NFκB transactivation was examined using the κB-luciferase reporter construct. […] Cells were assessed for NFκB driven luciferase expression after an additional five hours of incubation, at which time TNF-α had induced transcriptional activity by approximately 15-fold in control cells. […] The results thus far support a divergence of triptolide-mediated functions: the pathway regulating growth arrest/death is more sensitive to triptolide and calcium than the mechanism leading to transcriptional repression of NFκB.
# A triple κB promoter-Luciferase reporter construct was a gift of Sankar Ghosh (Yale University). […] The transfection efficiency of HeLa was determined to be 80-90%, and all samples were normalized to protein concentration. Luciferase assays were performed using the Firefly luciferase kit as per manufacturer's protocol (Promega) and results obtained on the Wallac Victor2 1420 Multilabel Counter (Perkin Elmer).
structure (smiles),measurement,setting,value
CC(C)[C@]12O[C@H]1[C@@H]1O[C@]13[C@]1(O[C@H]1C[C@H]1C4=C(CC[C@@]13C)C(=O)OC4)[C@@H]2O [triptolide],Kd,HeLa cells,15.5 ± 0.8 nM
same,inhibition of TNF-α driven transcriptional activity of NFκB,"NFκB transactivation; 10 nM, 1 h pre-treatment + 5 h TNF-α",did not inhibit
same,luciferase induction remaining with compound + TNF-α,"NFκB transactivation; 10 nM, after 24 hours",> 20 fold
same,inhibition of TNF-α driven transcriptional activity of NFκB,"NFκB transactivation; 25 nM, 1 h pre-treatment + 5 h TNF-α",did not inhibit
same,suppression of TNF-α driven NFκB activity,"NFκB transactivation; 50 nM, 1 h pre-treatment + 5 h TNF-α",20%
same,suppression of NFκB transactivation with site-directed calcium buffering,"NFκB transactivation; 100 nM, GFP vector, NES-PV-GFP or NLS-PV-GFP",retained the ability to suppress NFκB transactivation
same,inhibition of TNF-α induced NFκB transactivation,"NFκB transactivation; 100 nM, presence and absence of calcium",effectively inhibited
same,NFκB activity at higher concentration,"NFκB transactivation; 1 or 10 μM, 5 hours with TNF-α",attenuated further
same,inhibition at 0.1 µM,"NFκB transactivation; 0.1 μM, 5 hours with TNF-α, read-out: NFκB inhibition",> 60%
same,inhibition at 0.1 µM,"NFκB transactivation; 100 nM, 1 h pre-treatment + 5 h TNF-α, read-out: inhibition of TNF-α driven NFκB activity (average)",60%

# Source: patent US20080063601A1, “Compositions and methods relating to polycystic kidney disease” (priority 2004, published 2008)
